Legend:
[1] = molecular target: T1, angiotensin converting enzyme (ACE) (Oryctolagus cuniculus, UniProt P12822); assay: colorimetric ACE inhibition assay (Serra et al.); type: biochemical; conditions: read-out: ACE inhibiting activity IC50
T1 sequence (P12822 34-1310): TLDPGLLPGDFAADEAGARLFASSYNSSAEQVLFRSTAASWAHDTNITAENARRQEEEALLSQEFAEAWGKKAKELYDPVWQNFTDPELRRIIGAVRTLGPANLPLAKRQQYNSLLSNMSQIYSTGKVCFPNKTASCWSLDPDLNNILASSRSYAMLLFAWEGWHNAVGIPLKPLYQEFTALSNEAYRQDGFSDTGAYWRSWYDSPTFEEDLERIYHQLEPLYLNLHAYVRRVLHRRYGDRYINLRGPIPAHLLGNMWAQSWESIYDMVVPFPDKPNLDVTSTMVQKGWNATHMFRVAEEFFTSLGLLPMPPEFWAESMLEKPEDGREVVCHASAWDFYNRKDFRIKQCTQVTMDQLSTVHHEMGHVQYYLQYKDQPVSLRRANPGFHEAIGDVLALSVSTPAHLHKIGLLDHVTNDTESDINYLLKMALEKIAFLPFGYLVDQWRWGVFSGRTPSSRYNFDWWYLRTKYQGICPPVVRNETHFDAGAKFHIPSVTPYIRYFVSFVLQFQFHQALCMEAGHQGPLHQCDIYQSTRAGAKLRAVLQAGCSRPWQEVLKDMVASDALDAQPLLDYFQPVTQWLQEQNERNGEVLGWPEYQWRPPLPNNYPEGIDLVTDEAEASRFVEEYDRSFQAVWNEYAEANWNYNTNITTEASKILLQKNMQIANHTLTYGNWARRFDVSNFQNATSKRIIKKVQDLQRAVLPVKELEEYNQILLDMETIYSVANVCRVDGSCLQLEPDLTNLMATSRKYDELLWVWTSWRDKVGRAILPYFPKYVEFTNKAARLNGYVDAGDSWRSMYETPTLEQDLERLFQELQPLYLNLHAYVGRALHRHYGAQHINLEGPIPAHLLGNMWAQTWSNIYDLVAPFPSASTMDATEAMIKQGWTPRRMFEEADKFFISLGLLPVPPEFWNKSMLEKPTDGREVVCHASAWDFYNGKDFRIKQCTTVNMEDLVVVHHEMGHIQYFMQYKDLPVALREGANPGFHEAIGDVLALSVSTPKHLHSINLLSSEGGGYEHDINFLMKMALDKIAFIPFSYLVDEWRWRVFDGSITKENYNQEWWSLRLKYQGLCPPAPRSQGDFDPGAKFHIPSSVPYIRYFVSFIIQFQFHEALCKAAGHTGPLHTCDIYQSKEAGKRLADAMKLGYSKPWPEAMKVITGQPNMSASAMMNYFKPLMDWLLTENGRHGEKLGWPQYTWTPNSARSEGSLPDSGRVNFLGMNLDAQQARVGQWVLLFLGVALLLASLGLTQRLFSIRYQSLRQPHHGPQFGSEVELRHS
Text: Despite being exhaustively referred to in ethnobotanic surveys, only few biological activities of Hancornia speciosa have been assessed. ACE inhibiting activity for ethanolic extract from the leaves of the said species has been referred to by Serra et al. (Serra, C. P.; Cortes, S. F.; Lombardi, J. A.; Braga De Oliveira, A.; Braga, F. C. Validation of a […] assay for the in vitro screening of inhibitors of angiotensin-converting enzyme (ACE) from plant extracts. Phytomedicine, v. 12, n. 6-7, 2005). These authors assessed several species of the Brazilian flora as for their ACE inhibiting potential. […] P.; Cortes, S. F.; Lombardi, J. A.; Braga De Oliveira, A.; Braga, F. C. Validation of a colorimetric assay for the in vitro screening of inhibitors of angiotensin-converting enzyme (ACE) from plant extracts. Phytomedicine, v. 12, n. 6-7, 2005), in the concentration of 0.1 mg/ml.

normotensive mice = assay: systolic pressure in normotensive mice (caudal vessel); type: in vivo; conditions: 1 mg/kg delivered orally

SMILES | IC50 [1] [µM] | systolic arterial pressure / hypotensive effect (normotensive mice)
COC1[C@H](O)[C@H](O)C(O)[C@H](O)[C@H]1O (stereo partly drawn) [L-(+)-bornesitol] | 41.4 ± 9.6 | –
C[C@@H]1O[C@@H](OC[C@H]2O[C@@H](Oc3c(-c4ccc(O)c(O)c4)oc4cc(O)cc(O)c4c3=O)[C@H](O)[C@@H](O)[C@@H]2O)[C@H](O)[C@H](O)[C@H]1O [rutin] | 454 ± 78.4 | –
C[C@H](CS)C(=O)N1CCC[C@H]1C(=O)O [Captopril] | – | significant hypotensive effect, but of low intensity and short duration
